In PubChem BioAssay (NCI):
Where “and” joins values, the source holds several entries; their conditions need not be identical. Equal values may be shown once.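 Method: 48-hour compound exposure of cells in 96-well plates, five concentrations, linear interpolation of endpoints. GI50: concentration for 50% inhibition of growth. At the TGI there is no net growth.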

Columns and labels:
Experiment in all cases: growth of human tumour cells (NCI), 48 h
[1] = system: A549 NSCLC
[2] = system: CCRF-CEM leukemia
[3] = system: HOP-62 NSCLC
[4] = system: IGROV1 ovarian
[5] = system: LOX IMVI melanoma
[6] = system: MDA-MB-231 breast
[7] = system: NCI/ADR-RES ovarian
[8] = system: PC-3 prostate

Row | Structure (SMILES) | GI50 [1] | TGI [1] | GI50 [2] | TGI [2] | GI50 [3] | TGI [3] | GI50 [4] | TGI [4] | GI50 [5] | TGI [5] | GI50 [6] | TGI [6] | GI50 [7] | TGI [7] | GI50 [8] | TGI [8]
1 | C[C@H]1c2ccccc2CN1CCCOc1cc2c(cc1OCC1CC1)C1(CCCC1)C(N)=N2 | 1.94 µM | 7.61 µM | 1.46 µM | 6.82 µM | 3.67 µM | 10.2 µM | 2.27 µM | 9.11 µM | 0.845 µM | 1.57 µM | 1.44 µM | 5.21 µM | 2.84 µM | 10.5 µM | 1.69 µM | 7.6 µM
2 | Nc1n[nH]c2ccc([C@@H]3Nc4cc5[nH]ncc5cc4[C@H]4C5CCC(C5)[C@@H]34)cc12 (stereo partly drawn) | 0.584 µM | > 100 µM | 0.344 µM | > 40.4 µM | 0.689 µM | 98 µM | 0.533 µM | 41.8 µM | 0.659 µM | 74.8 µM | 0.764 µM | 98.1 µM | 0.807 µM | > 100 µM | 0.365 µM | > 41.9 µM
3 | Cc1c2ccncc2c(C)c2c1c1cc(CO)ccc1n2C | 0.416 µM | 2.81 µM | 0.545 µM | 4.18 µM | 0.335 µM | 2.05 µM | 0.214 µM | 1.76 µM | 0.449 µM | 2.1 µM | 0.456 µM | 2.96 µM | 0.551 µM | 7.5 µM | 0.294 µM | 1.39 µM
4 | Nc1ncccc1-c1nc2ccc(-c3ccccc3)nc2n1-c1ccc(C2(N)CCC2)cc1 | 1.69 µM | 6.81 µM | 0.437 µM | 9.86 µM | 1.9 µM | 8.48 µM | 0.0342 µM | 0.863 µM | 1.37 µM | 2.77 µM | 1.46 µM | 3.39 µM | 2.43 µM | 14.6 µM | 0.0533 µM | 3.39 µM
5 | CC(=O)C12C[C@](C#N)(N3CCCCCC3)C1C=Cc1ccccc12 (stereo partly drawn) |  | > 100 µM |  | > 100 µM |  | > 100 µM |  | > 100 µM |  |  |  | > 100 µM |  | > 100 µM |  | > 100 µM
6 | COC(=O)/C(=C\c1ccco1)P(=O)(OC)OC |  | > 100 µM |  | 94.2 µM |  | 52.7 µM |  | > 100 µM |  | 71 µM |  | > 100 µM |  | > 100 µM |  | > 100 µM
7 | CCN(CC)CCC(CNc1c(C)cnc2cc(Cl)ccc12)c1ccc(Cl)cc1 (stereo not drawn) | 16 µM | 32.2 µM | 4.32 µM | 19.2 µM | 10.6 µM | 23.8 µM |  |  |  |  |  |  | 10.2 µM | 23.5 µM | 10.7 µM | 24 µM
8 | C[C@@H]1COCCN1c1cc(-c2ccnn2C)c2ccnc(-c3ccn[nH]3)c2n1 | 0.0623 µM and 0.19 µM |  | 0.0175 µM and 0.03 µM | > 23.7 µM | 0.112 µM and 0.216 µM | 1.94 µM | 0.0715 µM and 0.195 µM |  | 0.0572 µM and 0.118 µM | 0.421 µM and 1.51 µM | 0.223 µM and 0.386 µM | 10.7 µM and > 69.9 µM | 0.101 µM and 0.28 µM | 2.43 µM and 4.78 µM | 0.275 µM and 0.454 µM | > 100 µM
9 | COc1ccc(-c2ccc(/C=N/n3c(COc4ccccc4Cl)n[nH]c3=S)o2)c([N+](=O)[O-])c1 | 30.4 µM | 87.9 µM | 23.1 µM | > 100 µM | 26.7 µM | 69.3 µM | 52.7 µM | > 100 µM | 17.6 µM | 45.8 µM | 46.7 µM | > 100 µM | 22.6 µM | 57.1 µM | 23.6 µM | 79.4 µM
10 | Cc1nn(C(=O)c2ccncc2)c2c1C(c1cccc([N+](=O)[O-])c1)SC(N)=N2 (stereo not drawn) |  | > 10 µM |  | > 10 µM |  | > 10 µM |  | > 10 µM |  | > 10 µM |  | > 10 µM |  | > 10 µM |  | > 10 µM
11 | CCN(C(=O)CN1CCN(c2cc3c(cc2F)c(=O)c(C(=O)O)cn3CC)CC1)c1nc(-c2ccccc2)cs1 | 0.365 µM | > 100 µM | 0.427 µM | > 100 µM | 0.345 µM | > 100 µM | 0.419 µM | > 100 µM | 0.325 µM | > 100 µM | 0.442 µM | > 100 µM | 0.331 µM | > 100 µM | 0.362 µM | > 100 µM
12 | CC1=C[C@@H](C)C[C@]2(C)CC[C@H](O2)[C@]23CC[C@](C)(C[C@H](O2)[C@@H]2O[C@@](C)(CC2=O)[C@@H](O)[C@H]2CC[C@@]4(CCC[C@@H](O4)[C@H](C)C(=O)O[C@H]4C[C@H]([C@]5(O)OCC[C@H](C)[C@@H]5O)O[C@H]4C=C1)O2)O3 |  | > 10 µM |  |  |  | 0.00916 µM |  | 0.0154 µM |  | > 10 µM |  | 0.238 µM |  | > 10 µM |  | 
13 | Clc1ccccc1NN(Cc1ccncc1)c1ccccc1Cl |  | 29.8 µM |  |  |  | 29.2 µM |  | 27.7 µM |  | 30.3 µM |  | 27.8 µM |  | 32 µM |  | 28.9 µM
14 | O=C(Nc1ccccc1Cl)c1cccc(NC2=C(Cl)C(=O)N(Cc3ccccc3)C2=O)c1 | 49.3 µM | > 100 µM |  |  |  |  | 0.549 µM | 2.29 µM | 7.96 µM | > 100 µM | 17.1 µM | 69.7 µM | 46.4 µM | > 100 µM | 18.9 µM | 99 µM
15 | CCOC(=O)c1c(NCc2ccccc2)n(-c2ccccc2)c(=S)n(-c2ccccc2)c1=O |  | > 100 µM |  | > 100 µM |  |  |  | > 100 µM |  | > 100 µM |  | > 100 µM |  |  |  | 
16 | NCCC(=O)NC(Cc1cnc[nH]1)C(=O)O (stereo not drawn) |  | > 100 µM |  | > 100 µM |  | > 100 µM |  | > 100 µM |  | > 100 µM |  | > 100 µM |  | > 100 µM |  | > 100 µM
17 | COc1cc2c(cc1-c1coc3cc(OCC=C(C)C)ccc3c1=O)OCO2 |  | > 100 µM |  |  |  | 89.1 µM |  | > 100 µM |  | 93.9 µM |  | 65.6 µM |  |  |  | > 100 µM
18 | Cc1ccc(Sc2oc(-c3ccc(C)cc3)nc2[P+](c2ccccc2)(c2ccccc2)c2ccccc2)cc1 | 0.305 µM | 1.24 µM | 0.31 µM | 1.64 µM |  |  |  |  | 0.166 µM | 0.323 µM | 0.28 µM | 1.03 µM | 0.49 µM | 2.21 µM | 0.305 µM | 1.34 µM
19 | COc1ccc2c(c1)C(=O)c1c-2c(N2CCNCC2)nc2ccccc12 | 3.3 µM | 15.8 µM | 1.36 µM | 2.94 µM |  |  | 2.37 µM | 8.7 µM | 1.79 µM | 3.5 µM | 3.21 µM | 11.1 µM | 6.33 µM | 23.7 µM | 0.267 µM | 8.67 µM
